In patent US9040749B2, “Borazine derivatives” (UNIVERSITE DE NAMUR, priority 2011, dated 2015):

What was measured:
[1] = Solubility in organic solvents; format: physicochemical
[2] = Stability at air and room temperature, NMR spectra at t=0 and t=10 months; format: physicochemical; settings: NMR spectra at t=0 and t=10 months (FIG. 5)

Row | Solubility ([1]; solvent: Chloroform) | Solubility ([1]; solvent: Dichloromethane) | Solubility ([1]; solvent: Ethyl acetate) | Solubility ([1]; solvent: Toluene) | Stability at air and room temperature [2] | Solubility (miscibility) ([1]; compound is an oil, toluene, ethyl acetate, dichloromethane, benzene and chloroform) | SMILES
1 | 54 Milligram/milliliter | 102 Milligram/milliliter | 62 Milligram/milliliter | 45 Milligram/milliliter | excellent stability |  | Cc1cc(C)c(B2N(c3ccccc3)B(c3c(C)cc(C)cc3C)N(c3ccccc3)B(c3c(C)cc(C)cc3C)N2c2ccccc2)c(C)c1 [borazine derivative 1, N,N′,N″-triphenyl-B,B,B″-tri(2,4,6-trimethyl)phenyl borazine]
2 |  |  |  |  |  | miscible | CCCCCCCCCCCCc1ccc(N2B(c3c(C)cc(C)cc3C)N(c3ccc(CCCCCCCCCCCC)cc3)B(c3c(C)cc(C)cc3C)N(c3ccc(CCCCCCCCCCCC)cc3)B2c2c(C)cc(C)cc2C)cc1 [borazine derivative 2, N,N′,N″-tri(4-dodecyl)phenyl-B,B,B″-tri(2,4,6-trimethyl)phenyl borazine]
